In brackets after ≈: the same amount, converted by molar mass. Several values for one entry are separate records, joined by “and”; a condition that tells them apart may be missing. Identical values can stand only once. Like-named read-outs stand apart in the source and are kept apart here.
What was measured:
[1] = system: B. subtilis / cytotoxicity EC50; test: Selectivity index (SI) using B. subtilis MICs
Description: Additionally, the antimicrobial compounds were analyzed for cytotoxicity. […] We utilized the standard MTT assay (Promega CellTiter 96) and GraphPad Prism 7 software to determine EC50 values for each analogue. Briefly, 20,000 HepG2 cells in 200 μl of the ATCC recommended media were seeded in each well of a 96-well plate with a moisture barrier created in the outermost wells. The cells were allowed to attach overnight at 37° C., and then observed under phase contrast microscopy for proper morphological characteristics. If cells appeared healthy and attached, test compounds were added in 7 concentrations from […] (n=3) from freshly prepared DMSO stock plates. […] Once incubations were complete, the spectrophotometric absorbance of the samples was measured at a wavelength of 595 nm. […] For the HepaRG assay, NoSpin HepaRG™ cells (Lonza, cat #NSHPRG) were thawed and plated with 20,000 cells per well. They were allowed to attach for 4 h (optimal DME profile per Lonza's testing) before dosing following the identical protocol as above.

Neisseria gonorrhoeae = test: microbe, parasite or virus in culture; assay type: cell-based
[2] = Toxicity study in mice, body weight over 7 days; assay type: in vivo, Balb/c mice
Description: The vehicle is 40% PEG300 solution in 0.9% NaCl. […] Thus, the compounds are useful for in vivo antimicrobial administration.

[3] = ATCC49226, read-out: Neisseria gonorrhoeae ATCC 49226 MIC, strain ATCC 49226
[4] = read-out: Neisseria gonorrhoeae WHO 901 MIC, strain WHO 901
[5] = read-out: Neisseria gonorrhoeae WHO 914 MIC, strain WHO 914

Which “SI (selectivity index)” value [1] does the source give for Clc1ccc(Sc2c[nH]c3ccc(Br)cc23)c(Cl)c1 [Compound 174V, 5-bromo-3-((2,4-dichlorophenyl)thio)-1H-indole] here?
Its value is 19.8.

For Fc1ccccc1Sc1c[nH]c2ccc(C(F)(F)F)cc12 [Compound 177D, 3-((2-fluorophenyl)thio)-5-(trifluoromethyl)-1H-indole], which “SI (selectivity index)” value [1] is on record?
The value was 17.4.

With Fc1ccc2[nH]cc(Sc3ccc(Br)cc3)c2c1 [Compound 174E, 3-((4-bromophenyl)thio)-5-fluoro-1H-indole] as the molecule, how does the “SI (selectivity index)” value [1] read?
Its value is 14.2.

With Cc1ccccc1Oc1c[nH]c2ccc(F)cc12 as the molecule, how does the MIC (Neisseria gonorrhoeae; [3]) read?
The MIC was 8 µg/mL (≈ 33.2 µM).

What about the MIC (Neisseria gonorrhoeae; [4]) of the same molecule?
The MIC was 4 µg/mL (≈ 16.6 µM).

What about the MIC (Neisseria gonorrhoeae; [5]) of the same molecule?
Its MIC is 8 µg/mL (≈ 33.2 µM).

With Brc1ccc2[nH]cc(Oc3ccccc3)c2c1 [5 bromo-3-phenoxy-1H-indole] as the molecule, how does the MIC (Neisseria gonorrhoeae; [3]) read?
Its MIC is 8 µg/mL (≈ 27.8 µM).

What about the MIC (Neisseria gonorrhoeae; [4]) of the same molecule?
Its MIC is 4 µg/mL (≈ 13.9 µM).

What about the MIC (Neisseria gonorrhoeae; [5]) of the same molecule?
Its MIC is 8 µg/mL (≈ 27.8 µM).

Which MIC (Neisseria gonorrhoeae; [3]) does the source give for c1ccc(Oc2c[nH]c3ccccc23)cc1 [3-phenoxy-1H-indole] here?
Its MIC is greater than 8 µg/mL.

And the MIC (Neisseria gonorrhoeae; [4])?
The MIC was greater than 8 µg/mL.

And the MIC (Neisseria gonorrhoeae; [5])?
The MIC was greater than 8 µg/mL.

Which MIC (Neisseria gonorrhoeae; [3]) does the source give for Cc1cccc(Cc2c[nH]c3ccc(F)cc23)c1 here?
The MIC was 8 µg/mL (≈ 33.4 µM).

And the MIC (Neisseria gonorrhoeae; [4])?
The MIC was 8 µg/mL (≈ 33.4 µM).

And the MIC (Neisseria gonorrhoeae; [5])?
The MIC was greater than 8 µg/mL.

Which results are given for Oc1ccccc1Sc1c[nH]c2ccc(Br)cc12 [Compound 174AI, 2-((5-bromo-1H-indol-3-yl)thio)phenol]?
toxicity in mice (body weight over 7 days) ([2]; 6-week-old Balb/c mice, vehicle 40% PEG300 in 0.9% NaCl): did not have significant toxicity; Animal body weight ([2]; IP 0.1 mg/kg, Day 0, individual animals, 0.1 mg/kg): 0.023 kg (2×) and 0.022 kg; Animal body weight ([2]; IP 0.1 mg/kg, Day 1, individual animals, 0.1 mg/kg): 0.022 kg (2×) and 0.021 kg; Animal body weight ([2]; IP 0.1 mg/kg, Day 2, individual animals, 0.1 mg/kg): 0.023 kg and 0.022 kg and 0.021 kg; Animal body weight ([2]; IP 0.1 mg/kg, Day 3, individual animals, 0.1 mg/kg): 0.024 kg and 0.022 kg (2×); Animal body weight ([2]; IP 0.1 mg/kg, Day 4, individual animals, 0.1 mg/kg): 0.024 kg and 0.022 kg (2×); Animal body weight ([2]; IP 0.1 mg/kg, Day 5, individual animals, 0.1 mg/kg): 0.024 kg and 0.022 kg (2×); Animal body weight ([2]; IP 0.1 mg/kg, Day 6, individual animals, 0.1 mg/kg): 0.024 kg and 0.022 kg (2×); Animal body weight ([2]; IP 0.1 mg/kg, Day 7, individual animals, 0.1 mg/kg): 0.023 kg (2×) and 0.022 kg; Animal body weight ([2]; IP 1 mg/kg, Day 0, individual animals, 1 mg/kg): 0.022 kg and 0.024 kg and 0.026 kg; Animal body weight ([2]; IP 1 mg/kg, Day 1, individual animals, 1 mg/kg): 0.023 kg and 0.024 kg and 0.026 kg; Animal body weight ([2]; IP 1 mg/kg, Day 2, individual animals, 1 mg/kg): 0.023 kg and 0.025 kg and 0.026 kg; Animal body weight ([2]; IP 1 mg/kg, Day 3, individual animals, 1 mg/kg): 0.023 kg and 0.025 kg and 0.027 kg; Animal body weight ([2]; IP 1 mg/kg, Day 4, individual animals, 1 mg/kg): 0.022 kg and 0.025 kg and 0.026 kg; Animal body weight ([2]; IP 1 mg/kg, Day 5, individual animals, 1 mg/kg): 0.022 kg and 0.025 kg and 0.026 kg; Animal body weight ([2]; IP 1 mg/kg, Day 6, individual animals, 1 mg/kg): 0.022 kg and 0.024 kg and 0.026 kg; Animal body weight ([2]; IP 1 mg/kg, Day 7, individual animals, 1 mg/kg): 0.022 kg and 0.024 kg and 0.026 kg; Animal body weight ([2]; IP 10 mg/kg, Day 0, individual animals, 10 mg/kg): 0.022 kg and 0.026 kg and 0.024 kg; Animal body weight ([2]; IP 10 mg/kg, Day 1, individual animals, 10 mg/kg): 0.021 kg and 0.024 kg and 0.022 kg; Animal body weight ([2]; IP 10 mg/kg, Day 2, individual animals, 10 mg/kg): 0.022 kg and 0.024 kg and 0.023 kg; Animal body weight ([2]; IP 10 mg/kg, Day 3, individual animals, 10 mg/kg): 0.022 kg and 0.025 kg and 0.023 kg; Animal body weight ([2]; IP 10 mg/kg, Day 4, individual animals, 10 mg/kg): 0.022 kg and 0.026 kg and 0.024 kg; Animal body weight ([2]; IP 10 mg/kg, Day 5, individual animals, 10 mg/kg): 0.023 kg and 0.026 kg and 0.024 kg; Animal body weight ([2]; IP 10 mg/kg, Day 6, individual animals, 10 mg/kg): 0.022 kg and 0.026 kg and 0.024 kg; Animal body weight ([2]; IP 10 mg/kg, Day 7, individual animals, 10 mg/kg): 0.022 kg and 0.026 kg and 0.023 kg

With Fc1ccc2[nH]cc(Cc3ccc(Br)cc3)c2c1 [3-(4 bromobenzyl)-5-fluoro-1H-indole] as the molecule, how does the MIC (Neisseria gonorrhoeae; [3]) read?
The MIC was 4 µg/mL (≈ 13.2 µM).

With CC(c1ccccc1)c1c[nH]c2ccc(F)cc12 (centres unmarked) as the molecule, how does the MIC (Neisseria gonorrhoeae; [3]) read?
Its MIC is 8 µg/mL (≈ 33.4 µM).

What about the MIC (Neisseria gonorrhoeae; [4]) of the same molecule?
Its MIC is 4 µg/mL (≈ 16.7 µM).

What about the MIC (Neisseria gonorrhoeae; [5]) of the same molecule?
Its MIC is 8 µg/mL (≈ 33.4 µM).

Reference: patent publication US20250382269A1 (CFD Research Corporation, priority 2019, published 2025)
